Peptide text beside a SMILES is read from it. * marks the point of attachment. Cbz = O=C(OCc1ccccc1)*
Legend:
cMYC-EGFP-DCD23 = assay: Degradation of cMYC-EGFP-DCD23 in HMEC (flow cytometry, western blotting); assay type: cell-based, human; conditions: co-treatment with CC220 (10μM), 4h, western blotting
Description: (§1) To systematically delineate the optimal DCD/degrader combination for targeted protein degradation, we undertook a matrix approach evaluating all 23 DCD tags against 6 small molecule degraders. […] To control for any potential off-target effects of the IMiD/CeLMOD agents that could indirectly affect the target of interest, we designed controls in which the specific DCD and the EGFP sequences were interspaced by a P2A ribosomal “skipping” sequence,[32] leading to separate translation of the DCD and the target protein (Figure 1A). These constructs were then inserted into a doxycycline-inducible lentiviral vector system and stably expressed in hTERT immortalized human mammary epithelial cells (HMEC), a suitable model to assess the functional consequences of cMYC degradation. cMYC was tagged at the C-terminus end for the initial screening experiments.
(§2) Figure 1 Design and experimental evaluation of the DCD tags (A) Representation of the experimental pipeline used to evaluate the different DCD constructs. […] Median EGFP intensity was measured in each condition using flow cytometry (3 independent experiments, normalized to the control and represented as mean ± SD). […] The protein lysates were probed for cMYC levels using western blotting. […] Target loss was evaluated either by measuring EGFP median intensity using flow cytometry or western blotting for cMYC protein (3 independent experiments, normalized to the control and represented as mean ± SD). […] Target loss was evaluated as in (D) (3 independent experiments, normalized to the control and represented as mean ± SD). […] Protein lysates were collected and probed for cMYC and p21 using western blotting. […] Protein lysates were collected and probed for cMYC and p21 using western blotting. […] These were left out as controls with no test substance.
(§3) Following degrader treatment cells were collected and DAPI was added to the cell suspension at 1 μg/mL to allow the exclusion of dead cells. EGFP signal was measured using BD LSR II flow cytometer (BD Biosciences). FlowJo 10 Software (FlowJo) was used for data processing.
(§4) Cells were lysed with SDS lysis buffer (2% SDS, 10% Glycerol, 50mM Tris pH 6.8) and boiled at 95°C for 30min. Protein concentration was measured using Pierce BCA Protein Assay Kit (ThermoFischer) following manufacturer’s recommendations. Samples were ran in NuPAGETM 10% Bis-Tris Midi electrophoresis gels (Invitrogen) using NuPAGETM MES SDS running buffer (ThermoFischer Scientific).
(§5) For western blotting membranes were blocked in a solution of 5% (w/v) bovine serum albumin (BSA; Sigma-Aldrich) dissolved in TBS-0.1% Tween 20 (Sigma-Aldrich) then incubated at 4°C overnight with the primary antibodies diluted in 5% (w/v) BSA/TBS-T. The membranes where then washed and incubated with anti-mouse and/or anti-rabbit secondary antibodies (LI-COR Biosciences) for 2h at RT diluted in 5% (w/v) BSA/TBS-T then washed and imaged using the LI-COR Odyssey (LI-COR Biosciences). Images were analyzed using Image Studio Lite software (LI-COR Biosciences).

[1] = tested on: N-terminally tagged cMYC, RBM39, BRD4 (Flag-HA-DCD23 or Flag-HA-FKBP12^[F36V]); assay: Western blotting, iTAG versus dTAG fused proteins in SUM159; assay type: cell-based, human
Method: The fusion constructs were stably expressed in SUM159 cells and loss of protein was determined by western blotting.
(§6) The protein lysates were probed for HA using western blotting. […] The protein lysates were probed for HA using western blotting. […] Median EGFP intensity was measured in each condition using flow cytometry. (3 independent experiments, represented as mean ± SD).
The dTAG system has also been adapted to direct targets to the E3 CRL2^VHL using the PROTAC dTAG^V-1^16. […] We evaluated the degradation N-terminally tagged cMYC and RBM39 dTAG^V-1, we included BRD4 as a control as it was reported to be a well degraded target in the initial dTAG optimization (Figure 3C).[15]
(§7) For the pHAGE-PGK constructs: DCD23, SuperDegron and FKBP12^F36V were separately cloned into a pHAGE-PGK DEST backbone. cDNA encoding the indicated protein was then cloned from pENTR221 into the pHAGE-PGK-DCD23, pHAGE-PGK-SuperDegron or pHAGE-PGK-FKBPF36V DEST vector using Gateway cloning. SUM159 cells were transduced with the indicated lentivirus and selected with puromycin.
as §4, with “Scientific). Proteins were subsequently transferred to an Immobilon-P polyvinylidene Difluoride (PVDF) membrane (Merck Millipore) using the wet-transfer method (Bio-Rad) in a transfer buffer consisting of 20% (v/v) methanol and 10% protein electrophoresis buffer (24.77 mM Tris and 0.192 M glycine).” for “Scientific).”
as §5

cMYC-EGFP-DCD19 = assay: Flow cytometry of EGFP signal, cMYC-EGFP-DCD19 in HMEC; assay type: cell-based, human; conditions: 10uM, 4h
Description: as §1, §2, §3

N-terminally tagged EGFP = assay: Flow cytometry of N-terminally tagged EGFP in SUM159 (iTAG, SD, dTAG); assay type: cell-based, human; conditions: SUM159, 4h, normalized values; dTAG-13 for FKBP12 F36V, CC220 for SD and iTAG
Method: as §6
As we were finalizing our study on iTAG, a similar IMiD based degron was publish by the Ebert group.[28] The SuperDegron (SD) a 60 amino acid tag based on a chimera of Aiolos/ZFP91 was used to generate degradable chimeric antigen receptors (CAR).[28]
as §7

CT26 cells = assay: Quantitative multiplexed proteomics of CT26 cells treated with thalidomide derivatives; assay type: cell-based, mouse; conditions: CT26, 10uM, 24h
Method: After showing that iTAG was active in mouse cells, we explored whether more potential degrons were active in the murine context. […]2216[50] and profiled the cellular proteomes using quantitative multiplexed proteomics. […] Data are plotted as Log2 fold change relative to DMSO versus Log10 of p value. (B) Proteome of CT26 CRBN KO cells treated with 10uM of FPFT2216 for 24h analyzed and plotted as in (A). (C) HEK293T, CT26, AT3 and 4434 cells treated with 10uM of FPFT2216 for 24h in presence of absence of MLN4924. […] were analyzed using western blotting. (D) Structural representation of PDE6D with the critical […] highlighted in red. (E) CT26, AT3 and 4434 cells transiently expressing WT or […] mutant Flag-PDE6D treated with 10uM of FPFT2216 for 16h. (F) Docking model for FPFT-2216 (in magenta) in the binding site of mouse CRBN (in orange). H-bond interactions are shown as cyan dashes. (G) Binding model for the ternary complex formed by mouse CRBN (in orange), mouse PDE6D (in cyan) and FPFT-2216 (in magenta), showing the […] loop close to the molecular glue. Samples for quantitative proteomics were prepared using the […] workflow.[60] Briefly, the cell pellets were lysed in a buffer containing 150 μL 0.1 M triethylammonium bicarbonate (TEAB), 1% sodium deoxycholate (SDC), 10% isopropanol, 50mM NaCl, 5 mM tris-2-carboxyethyl phosphine (TCEP), 10 mM iodoacetamide (IAA), universal nuclease, and supplemented with protease and phosphatase inhibitors. Samples were bath sonicated for 5 min, incubated at RT for 45 min and protein concentration was measured with the Bradford Protein Assay (Biorad) according to manufacturer instructions. Aliquots containing 30 μg of total protein were used for protein digestion. The resultant peptides were labeled with a tandem mass tag (TMTpro) multiplex reagent vial (Thermo Scientific) according to the manufacturer instructions. All the TMT-labelled samples were combined in equal amounts to a single tube. The TMT-peptide mixture was acidified with 1% formic acid and the precipitated SDC was removed by centrifugation. The sample was then dried with a centrifugal vacuum concentrator. LC-MS analysis was performed on the Dionex Ultimate 3000 UHPLC system coupled with the Orbitrap Lumos mass spectrometer (Thermo Scientific). Samples were analyzed with the EASY-Spray C18 capillary column (75 μm × 50 cm, 2 μm) at 50°C. […] MS3 quantification was obtained with higher-energy collisional dissociation (HCD) fragmentation of the top 5 most abundant CID fragments isolated with synchronous precursor selection (SPS). […] The SEQUEST-HT search engine was used to analyze the acquired mass spectra in Proteome Discoverer 2.4 (Thermo Scientific) for protein identification and quantification. […]

## NS(=O)(=O)OC[C@@H]1C[C@@H](n2ccc3c(N[C@H]4CCc5ccccc54)ncnc32)C[C@@H]1O [MLN4924]
cMYC-EGFP-DCD23
  effect on CC220-induced cMYC degradation: inhibited cMYC degradation

## CC[C@H](C(=O)N1CCCC[C@H]1C(=O)O[C@H](CCc1ccc(OC)c(OC)c1)c1ccccc1OCC(=O)NCCCCCCOc1cccc2c1C(=O)N(C1CCC(=O)NC1=O)C2=O)c1cc(OC)c(OC)c(OC)c1 (stereo partly drawn) [dTAG-13]
[1]; SUM159, dTAG-13 on dTAG, CC220 on iTAG
  concentrations at which targets are degraded: less pronounced or even not observed at high concentrations
[1]; SUM159, dTAG-13 on dTAG, CC220 on iTAG, 1, 2 or 4h
  time of onset of degradation of cMYC and RBM39: moderate degradation only after 4h

## Nc1cccc2c1C(=O)N(C1CCC(=O)NC1=O)C2=O (stereo not drawn) [Pomalidomide]
cMYC-EGFP-DCD19
  loss of cMYC-EGFP signal: robust loss of cMYC-EGFP signal

## FKBP12^[F36V]: mutant FKBP12 protein tag of the dTAG system, degraded with dTAG-13
N-terminally tagged EGFP
  DC50: 0.38 nM
  DCmax: 95%

## O=C1CCC(N2Cc3cc(CNC(=O)C(F)(F)c4ccc(Cl)cc4)ccc3C2=O)C(=O)N1 (stereo not drawn) [CC90009]
CT26 cells
  effect on cellular proteome: no impact

## O=C1CCC(N2C(=O)c3ccc(NS(=O)(=O)c4ccccc4OC(F)(F)F)cc3C2=O)C(=O)N1 (stereo not drawn) [StJude6989]
CT26 cells
  effect on cellular proteome: no impact

## CC(C)C[C@@H](C=O)NC(=O)[C@H](CC(C)C)NC(=O)[C@H](CC(C)C)NC(=O)OCc1ccccc1 [MG132] (Cbz-Leu-Leu-Leu-aldehyde)
cMYC-EGFP-DCD23
  effect on CC220-induced cMYC degradation: inhibited cMYC degradation

## O=C1CCC(N2C(=O)c3ccccc3C2=O)C(=O)N1 (stereo not drawn) [Thalidomide]
cMYC-EGFP-DCD19
  loss of cMYC-EGFP signal: robust loss of cMYC-EGFP signal

## Cc1nc2cccc(N)c2c(=O)n1C1CCC(=O)NC1=O (stereo not drawn) [CC122, Avadomide]
cMYC-EGFP-DCD19
  loss of cMYC-EGFP signal: robust loss of cMYC-EGFP signal

## CC[C@H](C(=O)N1CCCC[C@H]1C(=O)O[C@H](CCc1ccc(OC)c(OC)c1)c1ccccc1OCC(=O)NCCCCCCC(=O)N[C@H](C(=O)N1C[C@H](O)C[C@H]1C(=O)N[C@@H](C)c1ccc(-c2scnc2C)cc1)C(C)(C)C)c1cc(OC)c(OC)c(OC)c1 [dTAG^V-1]
[1]; SUM159, BRD4, cMYC, RBM39, 4h
  degradation compared between dTAG variants: more robust degradation compared to dTAG-13

Reference: PMC10285648, “iTAG an optimized IMiD-induced degron for targeted protein degradation in human and murine cells” (iScience, 2023)
